Source: patent EP4703358A1, “BENZO SIX-MEMBERED HETEROCYCLIC GSPT1 PROTEIN DEGRADATION AGENT AND USE THEREOF” (China Pharmaceutical University, priority 2023, dated 2024)
Read-outs that look alike come from different tables or passages of the source.

Experiments:
[1] = Metabolic stability in in vitro rat liver microsomes; conditions: for half-life / microsomal CLint: rat
Protocol: (§3) 10 mM stock solutions of the test compounds in DMSO were prepared, diluted with acetonitrile and then with PBS, and vortexed, with the DMSO content controlled at 0.1%. The dilute working solutions (10 µL) were incubated with 65 µL of a liver microsome system (30 µL of 100 mM PBS, 25 µL of 20 mM MgCl2, and 10 µL of 5 mg/mL RLMs) and preheated at 37 °C for 5 min. 25 µL of 4 mM NADPH was added to start a reaction. Samples were taken at different time points (0 min, 5 min, 15 min, 30 min, 60 min, and 120 min), and an acetonitrile solution containing an internal standard was added to stop the reaction. After vortexing and centrifugation, the supernatants were collected and analyzed by LC-MS/MS, and the half-lives and clearance rates were calculated.

U937 = test: Antiproliferative activity against tumor cells (CCK8), U937; type: cell-based; conditions: Homo sapiens, U-937, 72 hours
Protocol: (§1) U937, MOLM-13, and MV4-11 cells (ATCC) in the logarithmic growth phase were separately diluted in a culture medium and plated onto 96-well plates at 5000 cells/well, and the plates were incubated in an incubator at 37 °C with 5% CO2 for 24 hours. 10 mM stock solutions of the compounds in DMSO were prepared and diluted with the culture medium to set 9 concentration gradients. Three replicate wells were set for each concentration. After compound addition, the plates were incubated in an incubator at 37 °C with 5% CO2 for 72 hours. The cell proliferation was assessed using the CCK8 method. The cell growth inhibition IC50 values of the compounds were determined using an enzyme labeling method. The IC50 values were calculated using GraphPad Prism 7 software.
(§2) The antiproliferative activity of the compounds against the tumor cells is shown in Table 3, where A represents IC50 < 1 nM, B represents 1 ≤ IC50 < 10 nM, C represents 10 nM ≤ IC50 < 100 nM, D represents 100 nM ≤ IC50 < 1000 nM, and E represents IC50 ≥ 1000 nM. Table 3. The antiproliferative activity of compounds against tumor cells

GSPT1 protein = target: T1, GSPT1 protein (Homo sapiens, UniProt P15170+Q96SW2); test: Degradation of GSPT1 in KG-1 cells (Western blot); type: cell-based; parameters: percent GSPT1 degradation: dose or concentration left out as unconfirmed; conditions: for percent GSPT1 degradation at 0.2 µM: compound concentration 200 nM
T1 construct: host or cells: KG-1 cells
Protocol: KG-1 cells (ATCC) were grown in an IMDM culture medium (containing 20% FBS). After centrifugation and counting, the cell concentration was adjusted. The cells were plated onto 6-well plates at 10^6 cells/well, with 1350 µL per well. 150 µL of DMSO and the test compounds of the present disclosure (compound concentration: 200 nM) were added. The plates were incubated in an incubator at 37 °C with 5% CO2 for 4 hours. The cells were centrifuged, and the culture medium was discarded. PBS was added to wash the cells and then discarded. Whole cell lysates were prepared using a protease inhibitor cocktail (100×, Fude Biological), a protein phosphatase inhibitor cocktail (100×, Fude Biological), SuperNuclease (Beyotime), and a high-intensity RIPA lysis buffer (Thermo Fisher) and placed on ice for 30 minutes. After centrifugation, the cell debris precipitates were discarded, and the whole cell lysate supernatants were collected and transferred to new centrifuge tubes. After a BCA protein assay, samples were prepared using a 5× loading buffer (Thermo Fisher). The samples were subjected to protein electrophoresis separation in a 4-20% precast gel (SDS-PAGE gel), transferred to a PVDF membrane, then blocked with 5% NFDM/TBST at room temperature for 1 hour, incubated overnight with primary antibodies at 4 °C, and incubated with a secondary antibody at room temperature for 2 hours the next day. Signals were detected using a MINICHEMITM imaging system.
Primary antibodies: • Anti-GSPT1: Abcam ab234433 • Anti-beta actin: Fude Biological FD0060
Secondary antibody: Anti-rabbit peroxidase-linked secondary antibody: Fude Biological FDG007
The degradation effects of the compounds on GSPT1 protein are shown in Table 1, where A represents a GSPT1 protein degradation percentage of no less than 80%, B represents a degradation percentage of less than 80% but no less than 50%, C represents a degradation percentage of less than 50% but no less than 25%, and D represents a degradation percentage of less than 25%. Table 1. The degradation of GSPT1 protein by compounds

MOLM-13 = test: Antiproliferative activity against tumor cells (CCK8), MOLM-13; type: cell-based; conditions: Homo sapiens, MOLM-13 cells, 72 hours
Protocol: as §1, §2

MV4-11 = test: Antiproliferative activity against tumor cells (CCK8), MV4-11; type: cell-based; conditions: Homo sapiens, MV4-11 cells, 72 hours
Protocol: as §1, §2

KG-1 cells = test: Antiproliferative activity against KG-1 cells (CCK8); type: cell-based; conditions: Homo sapiens, 72 hours
Protocol: KG-1 cells in the logarithmic growth phase were diluted in a culture medium (RPMI + 10% FBS) and plated onto 96-well plates at 5000 cells/well, and the plates were incubated in an incubator at 37 °C with 5% CO2 for 24 hours. 10 mM stock solutions of the test compounds of the present disclosure in DMSO were prepared and diluted with the culture medium to set 9 concentration gradients. Three replicate wells were set for each concentration. After compound addition, the plates were incubated in an incubator at 37 °C with 5% CO2 for 72 hours. The cell proliferation was assessed using the CCK8 method. The cell growth inhibition IC50 values of the compounds were determined using an enzyme labeling method. The IC50 values were calculated using GraphPad Prism 7 software.
as §2, with “KG-1” for “the tumor”, “2,” for “3,”, “2.” for “3.”, “KG-1” for “tumor”

[2] = system: human leukemia cells MV411; test: In vivo pharmacodynamic study in MV411 acute myeloid leukemia xenograft mouse model; parameters: species or system BABL/c Nude mouse; conditions: for weight loss in mice: once daily by oral gavage
Protocol: The human leukemia cells MV411 (Cell Bank, Chinese Academy of Sciences) used in this experiment were cultured in an IMDM culture medium supplemented with 10% FBS in an incubator containing CO2 at 37 °C. Before the cells were continuously sub-cultured to the tenth generation, MV411 cells in the logarithmic growth phase were used, and the cell concentration was adjusted to 1 × 10^8 cells/mL with a serum-free culture medium. Each BABL/c Nude mouse (Jiangsu GemPharmatech Co., Ltd., female, 4-6 weeks old, 14-16 g) was inoculated with 100 µL of the cell suspension by subcutaneous injection on the right dorsal side (near the axilla) under sterile conditions. When the mean tumor volume of the tumor-bearing mice reached approximately 100 mm^3, the mice were randomly divided into groups, with the tumor volume in each group being roughly the same. The day of grouping and administration was defined as day 0. The animals in each treatment group were given a compound once daily by oral gavage at 15 mg/kg, 30 mg/kg, or 60 mg/kg. The body weight and tumor volume of the animals were measured every other day.
Experimental indicator: The anti-tumor efficacy of the compounds was evaluated using the relative tumor growth inhibition rate (TGI). Tumor weight TGI (%) = {1 - [(final average tumor weight of experimental group)/(final average tumor weight of control group of tumor-bearing mice without administration)]} × 100%. Tumor volume TGI (%) = [1 - relative tumor volume of experimental group/relative tumor volume of control group of tumor-bearing mice without administration] × 100%.

[3] = In vivo pharmacokinetic study in rats; conditions: rat; for AUC(0-inf) / AUC(0-t) / C0 / Vd / clearance / half-life / Cmax / Tmax: male, SD, plasma; for F: PO 10mg/kg; for exposure level relative to CC-90009: administered orally
Protocol: (§4) Sample collection and preparation: After SPF SD rats (male, 210-230 g, 42-48 days, RILD Liver) in a good growth state were dosed intravenously at 2 mg/kg and orally at 10 mg/kg, blood samples were collected via the orbit at different blood collection time points and transferred to centrifuge tubes containing an anticoagulant; the intravenous blood collection time points were 0.08 hours, 0.25 hours, 0.5 hours, 1 hour, 2 hours, 4 hours, 6 hours, 8 hours, and 24 hours, and the oral blood collection time points were 0.25 hours, 0.5 hours, 1 hour, 2 hours, 4 hours, 6 hours, 8 hours, and 24 hours. The blood samples were immediately centrifuged at 4 °C and 8000 rpm for 10 minutes, and the plasma was collected and stored in an ultra-low-temperature freezer at -80 °C until it was analyzed by LC-MS/MS. Pharmacokinetic data analysis: Pharmacokinetic parameters of the compounds were calculated using pharmacokinetic software in a non-compartmental model. The peak plasma concentration (Cmax) and the time to reach the peak plasma concentration (Tmax) were taken as observation values. Parameters such as the half-life T1/2, the areas under the plasma concentration-time curve AUClast and AUCinf, the apparent volume of distribution Vss, and the clearance rate CL were determined through regression analysis of the linear terminal portion of the logarithmic plasma concentration-time curve and the linear trapezoidal rule.

[4] = male, SD, rat, in vivo, po, 10 mg/kg
Protocol: as §4

in vitro = conditions: rat, microsomes
Protocol: as §3

in vivo = conditions: male, SD, rat
Protocol: as §4

T1 sequence (P15170 whole entry): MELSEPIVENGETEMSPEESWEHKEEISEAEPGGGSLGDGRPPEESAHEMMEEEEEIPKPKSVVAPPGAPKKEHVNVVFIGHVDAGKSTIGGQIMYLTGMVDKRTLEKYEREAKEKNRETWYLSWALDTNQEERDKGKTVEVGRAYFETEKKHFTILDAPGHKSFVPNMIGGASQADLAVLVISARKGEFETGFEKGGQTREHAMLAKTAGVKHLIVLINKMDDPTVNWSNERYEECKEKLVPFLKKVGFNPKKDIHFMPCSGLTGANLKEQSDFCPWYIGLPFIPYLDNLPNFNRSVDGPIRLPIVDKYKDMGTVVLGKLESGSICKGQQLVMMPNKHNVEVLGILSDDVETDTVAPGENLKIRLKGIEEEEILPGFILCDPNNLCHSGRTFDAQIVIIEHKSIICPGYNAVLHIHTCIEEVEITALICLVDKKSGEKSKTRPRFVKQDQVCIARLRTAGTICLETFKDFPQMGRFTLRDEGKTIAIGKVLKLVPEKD
T1 sequence (Q96SW2 whole entry): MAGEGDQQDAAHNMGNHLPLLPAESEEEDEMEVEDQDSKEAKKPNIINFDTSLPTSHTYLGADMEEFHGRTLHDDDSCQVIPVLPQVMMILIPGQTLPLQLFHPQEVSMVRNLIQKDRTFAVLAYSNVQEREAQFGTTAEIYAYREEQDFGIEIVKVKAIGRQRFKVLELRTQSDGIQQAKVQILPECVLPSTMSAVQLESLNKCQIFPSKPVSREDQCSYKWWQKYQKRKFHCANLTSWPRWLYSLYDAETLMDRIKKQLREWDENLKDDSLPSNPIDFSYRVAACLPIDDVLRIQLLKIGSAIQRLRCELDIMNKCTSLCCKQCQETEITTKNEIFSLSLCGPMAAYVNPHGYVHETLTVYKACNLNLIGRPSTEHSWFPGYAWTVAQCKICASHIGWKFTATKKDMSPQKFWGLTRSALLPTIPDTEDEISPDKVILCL
T1 sequence (Q16531 whole entry partner): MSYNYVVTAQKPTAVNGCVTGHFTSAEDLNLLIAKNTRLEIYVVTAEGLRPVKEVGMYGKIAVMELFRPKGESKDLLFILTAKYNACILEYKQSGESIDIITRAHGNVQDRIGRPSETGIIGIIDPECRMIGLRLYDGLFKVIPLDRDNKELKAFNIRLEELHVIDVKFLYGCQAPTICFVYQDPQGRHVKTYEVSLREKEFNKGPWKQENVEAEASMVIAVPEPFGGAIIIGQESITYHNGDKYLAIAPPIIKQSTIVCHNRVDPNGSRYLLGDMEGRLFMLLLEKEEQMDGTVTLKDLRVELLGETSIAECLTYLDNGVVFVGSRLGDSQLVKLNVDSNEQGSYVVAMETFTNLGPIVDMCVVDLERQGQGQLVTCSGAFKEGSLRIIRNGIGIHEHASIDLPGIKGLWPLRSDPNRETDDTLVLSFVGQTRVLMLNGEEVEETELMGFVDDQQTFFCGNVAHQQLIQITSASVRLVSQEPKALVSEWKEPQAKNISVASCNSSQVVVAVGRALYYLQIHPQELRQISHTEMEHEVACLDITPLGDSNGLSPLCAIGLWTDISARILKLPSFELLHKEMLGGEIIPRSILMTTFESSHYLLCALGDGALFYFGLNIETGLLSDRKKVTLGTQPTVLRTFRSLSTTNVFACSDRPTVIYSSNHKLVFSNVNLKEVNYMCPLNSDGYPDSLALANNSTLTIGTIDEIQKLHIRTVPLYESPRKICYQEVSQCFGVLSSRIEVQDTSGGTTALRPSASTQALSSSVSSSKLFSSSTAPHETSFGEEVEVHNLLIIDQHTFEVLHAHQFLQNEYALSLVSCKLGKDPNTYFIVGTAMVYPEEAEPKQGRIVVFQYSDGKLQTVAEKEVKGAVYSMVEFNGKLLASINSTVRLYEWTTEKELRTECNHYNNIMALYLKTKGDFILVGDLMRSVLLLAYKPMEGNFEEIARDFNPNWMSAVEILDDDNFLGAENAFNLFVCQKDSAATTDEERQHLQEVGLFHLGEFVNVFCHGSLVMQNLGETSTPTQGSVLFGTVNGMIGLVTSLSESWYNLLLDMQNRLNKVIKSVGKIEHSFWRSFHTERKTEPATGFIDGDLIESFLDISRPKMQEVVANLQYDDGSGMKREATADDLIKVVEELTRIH

| Compound | half-life [1] | microsomal CLint [1] | IC50 (U937) | percent GSPT1 degradation at 0.2 µM (GSPT1 protein; KG-1 cells, 4 hours) | IC50 (MOLM-13) | IC50 (MV4-11) | IC50 (KG-1 cells) | AUC(0-inf) ([3]; iv, 2 mg/kg) | AUC(0-t) ([3]; iv, 2 mg/kg) | C0 ([3]; iv, 2 mg/kg) | Vd ([3]; iv, 2 mg/kg) | clearance ([3]; iv, 2 mg/kg) | half-life ([3]; iv, 2 mg/kg) | AUC(0-inf) ([3]; po, 10 mg/kg) | AUC(0-t) ([3]; po, 10 mg/kg) | Cmax ([3]; po, 10 mg/kg) | Tmax ([3]; po, 10 mg/kg) | half-life ([3]; po, 10 mg/kg) | F [3] | other results |
| --- | --- | --- | --- | --- | --- | --- | --- | --- | --- | --- | --- | --- | --- | --- | --- | --- | --- | --- | --- | --- |
| O=C1CCC(N2Cc3cc(CNC(=O)C4=Cc5cc(F)ccc5OC4)ccc3C2=O)C(=O)N1 (stereo not shown) [Compound A-3, N-((2-(2,6-Dioxopiperidin-3-yl)-1-oxoisoindolin-5-yl)methyl)-6-fluoro-2H-chromene-3-carboxamide] | 4.67 h | 4.95 µL/min/mg | 10 to 100 nM | > 80% | 10 to 100 nM | 10 to 100 nM | 10 to 100 nM |  |  |  |  |  |  |  |  |  |  |  |  |  |
| O=C1CCC(N2Cc3c(ccc(CNC(=O)C4=Cc5cc(OC(F)(F)F)ccc5OC4)c3F)C2=O)C(=O)N1 (stereo not shown) [Compound A-42, N-((2-(2,6-Dioxopiperidin-3-yl)-4-fluoro-1-oxoisoindolin-5-yl)methyl)-6-(trifluoromethoxy)-2H-chromene-3-carboxamide] | 3.11 h | 7.43 µL/min/mg |  | > 80% |  |  | 1 to 10 nM | 17300 ± 1470 ng·h/mL | 17200 ± 1500 ng·h/mL | 32100 ± 1550 ng/mL | 0.14 L/kg | 1.9 ± 0.1 mL/min/kg | 1.37 ± 0.04 h | 7190 ng·h/mL | 8380 ± 1280 ng·h/mL | 2810 ± 1530 ng/mL | 0.66 ± 0.28 h | 1.71 h | 9.8±1.5% | in vitro rat liver microsome metabolic half-life relative to CC-90009 ([1]; ratio to the clinical drug CC-90009): more than 2 times; tumor volume TGI ([2]; 60 mg/kg once daily by oral gavage): 100%; weight loss in mice [2]: no significant weight loss; exposure level relative to CC-90009 [3]: four times; plasma drug exposure level relative to CC-90009 ([3]; intravenous injection): fourteen times |
| O=C1CCC(N2Cc3cc(CNC(=O)C(F)(F)c4ccc(Cl)cc4)ccc3C2=O)C(=O)N1 (stereo not shown) [CC-90009] |  |  | 10 to 100 nM | 50 to 80% | 100 to 1000 nM | 10 to 100 nM | 10 to 100 nM |  |  |  |  |  |  |  |  |  |  |  |  | F [4]: 31.2±9.1%; half-life (in vitro): 1.29 h; microsomal CLint (in vitro): 17.9 µL/min/mg; AUC(0-inf) (in vivo; iv, 2 mg/kg): 1200 ± 304 ng·h/mL; AUC(0-t) (in vivo; iv, 2 mg/kg): 1200 ng·h/mL; C0 (in vivo; iv, 2 mg/kg): 1870 ± 492 ng/mL; Vd (in vivo; iv, 2 mg/kg): 2.85 ± 0.63 L/kg; clearance (in vivo; iv, 2 mg/kg): 28.8 ± 6.4 mL/min/kg; half-life (in vivo; iv, 2 mg/kg): 1.44 ± 0.26 h; AUC(0-inf) (in vivo; po, 10 mg/kg): 1896 ± 14 ng·h/mL; AUC(0-t) (in vivo; po, 10 mg/kg): 1892 ± 12 ng·h/mL; Cmax (in vivo; po, 10 mg/kg): 616 ± 53 ng/mL; Tmax (in vivo; po, 10 mg/kg): 1.5 ± 0.71 h; half-life (in vivo; po, 10 mg/kg): 2.91 ± 0.28 h |
| O=C1CCC(N2Cc3cc(CNC(=O)C4=Cc5ccccc5OC4)ccc3C2=O)C(=O)N1 (stereo not shown) [Compound A-1, N-((2-(2,6-Dioxopiperidin-3-yl)-1-oxoisoindolin-5-yl)methyl)-2H-chromene-3-carboxamide] | 6.17 h | 3.75 µL/min/mg | 1 to 10 nM | > 80% | 10 to 100 nM | 10 to 100 nM | 10 to 100 nM | 1920 ± 267 ng·h/mL | 1900 ± 270 ng·h/mL | 3840 ± 226 ng/mL | 0.92 ± 0.07 L/kg | 17.6 ± 2.6 mL/min/kg | 1.38 ± 0.14 h | 1850 ± 330 ng·h/mL | 1810 ± 343 ng·h/mL | 619 ± 42 ng/mL | 0.75 ± 0.43 h | 2.69 ± 1.13 h | 19.3±3.4% |  |
| O=C1CCC(N2Cc3cc(CNC(=O)C4COc5ccccc5C4)ccc3C2=O)C(=O)N1 (stereo not shown) [Compound B-1, N-((2-(2,6-Dioxopiperidin-3-yl)-1-oxoisoindolin-5-yl)methyl)chromane-3-carboxamide] | 0.735 h | 31.4 µL/min/mg | 1 to 10 nM | > 80% | 1 to 10 nM | 1 to 10 nM | 10 to 100 nM |  |  |  |  |  |  |  |  |  |  |  |  |  |
| O=C1CCC(N2Cc3cc(CNC(=O)C4COc5ccc(OC(F)(F)F)cc5C4)ccc3C2=O)C(=O)N1 (stereo not shown) [Compound B-4, N-((2-(2,6-Dioxopiperidin-3-yl)-1-oxoisoindolin-5-yl)methyl)-6-(trifluoromethoxy)chromane-3-carboxamide] |  |  | 1 to 10 nM | > 80% | 1 to 10 nM | < 1 nM | < 1 nM |  |  |  |  |  |  |  |  |  |  |  |  |  |
| O=C1CCC(N2Cc3cc(CNC(=O)C4=Cc5cc(OC(F)(F)F)ccc5OC4)ccc3C2=O)C(=O)N1 (stereo not shown) [Compound A-10, N-((2-(2,6-Dioxopiperidin-3-yl)-1-oxoisoindolin-5-yl)methyl)-6-trifluoromethoxy-2H-chromene-3-carboxamide] | 2.77 h | 8.35 µL/min/mg | 1 to 10 nM |  | 1 to 10 nM | 10 to 100 nM | 10 to 100 nM | 4350 ± 1200 ng·h/mL | 4310 ± 1200 ng·h/mL | 16700 ± 4330 ng/mL | 0.42 ± 0.13 L/kg | 8.1 ± 2.5 mL/min/kg | 1.53 ± 0.29 h | 4980 ± 2740 ng·h/mL | 4950 ± 2770 ng·h/mL | 3460 ± 1540 ng/mL | 0.33 ± 0.14 h | 3.03 ± 0.63 h | 22.9±12.6% | weight loss in mice [2]: no significant weight loss; percent GSPT1 degradation (GSPT1 protein; KG-1, 4 h, read-out: GSPT1 degradation): > 80%; degradation of GSPT1 in KG-1 and MV4-11 cells (GSPT1 protein; KG-1 and MV4-11 cells, FIGs. 1 and 2): concentration-dependent and time-dependent; percentage of degradation of GSPT1 protein (GSPT1 protein; KG-1 cells, 200 nM, 4 hours): higher than 80%; exposure level relative to CC-90009 [3]: nearly three times; clearance rate relative to CC-90009 ([3]; intravenous injection): one third; plasma drug exposure level relative to CC-90009 ([3]; intravenous injection): nearly four times |
